For five compounds, MIC results are on record in US5106961A, “Erythromycin ring-contracted derivatives” (Eli Lilly and Company, priority 1989, dated 1992).

Converted amounts (≈) assume the structure as drawn. Where two headings read alike, the source gives them in different places.

Holding throughout (assay type): cell-based
Assay [1] has as its system Staphylococcus epidermidis 270. Nature of the assay: Agar-dilution MIC, Staphylococcus epidermidis 270. Conditions: read-out: minimal inhibitory concentration (MIC). The source says:
(§1) The compounds of formulas 1 and 2 inhibit the growth of certain pathogenic bacteria, especially Gram-positive bacteria and Gram-negative […] such as Haemophilus influenzae.

Assay [2] deals with Staphylococcus epidermidis 222. Nature of the assay: Agar-dilution MIC, Staphylococcus epidermidis 222. Conditions: read-out: minimal inhibitory concentration (MIC).
From the text: as §1

Assay [3] has as its system Streptococcus pneumoniae Park I. Nature of the assay: Agar-dilution MIC, Streptococcus pneumoniae Park I. Conditions: read-out: minimal inhibitory concentration (MIC).
From the text: as §1

Assay [4] deals with Streptococcus pyogenes C203. In words: Agar-dilution MIC, Streptococcus pyogenes C203. Conditions: read-out: minimal inhibitory concentration (MIC).
From the text: as §1

Assay [5] concerns Streptococcus faecalis X66. Nature of the assay: Agar-dilution MIC, Streptococcus faecalis X66. Conditions: Enterococcus faecalis, read-out: minimal inhibitory concentration (MIC).
From the text: as §1

In assay [6] the test system is Haemophilus influenzae 76. In words: Agar-dilution MIC, Haemophilus influenzae 76. Conditions: Haemophilus influenzae 76, ampicillin-resistant strain, read-out: minimal inhibitory concentration (MIC).
From the text: as §1

Assay [7] concerns Staphylococcus aureus V41. In words: Agar-dilution MIC, Staphylococcus aureus V41. Conditions: Staphylococcus aureus V41, penicillin-resistant strain, read-out: minimal inhibitory concentration (MIC).
From the text: as §1

Assay [8] concerns Staphylococcus aureus X1.1. Nature of the assay: Agar-dilution MIC, Staphylococcus aureus X1.1.
From the text: as §1

Assay [9] has as its system Streptococcus faecalis 2041. Nature of the assay: Agar-dilution MIC, Streptococcus faecalis 2041. Conditions: Enterococcus faecalis, read-out: minimal inhibitory concentration (MIC).
From the text: as §1

Assay [10] deals with Haemophilus influenzae C.L. Nature of the assay: Agar-dilution MIC, Haemophilus influenzae C.L. Conditions: ampicillin-sensitive strain, read-out: minimal inhibitory concentration (MIC).
From the text: as §1

The mark [11] stands for this setting: Staphylococcus aureus X1.1, agar dilution, read-out: minimal inhibitory concentration (MIC).

For `CC[C@@H](O)[C@@](C)(O)[C@@H]1OC(=O)[C@H](C)[C@@H](O[C@H]2C[C@@](C)(OC)[C@@H](O)[C@H](C)O2)[C@H](C)[C@@H](O[C@@H]2O[C@H](C)C[C@H](N(C)C)[C@H]2O)[C@@]2(C)CC(C)=C(O2)[C@@H]1C` [Compound 3], the MIC is above 128 mg/L in assay [1]; above 128 mg/L in [2]; 16 mg/L (≈ 22.3 µM) in [3]; 32 mg/L (≈ 44.7 µM) in assay [4]; 64 mg/L (≈ 89.4 µM) in assay [5]; 32 mg/L (≈ 44.7 µM) in [6]. Moreover, the MIC is above 128 mg/L in [7], above 128 mg/L in assay [8] (setting [11]), above 128 mg/L in [9] and 32 mg/L (≈ 44.7 µM) in [10].

Regarding `CC[C@@H](O)[C@H](C)[C@@H]1OC(=O)[C@H](C)[C@@H](O[C@H]2C[C@@](C)(OC)[C@@H](O)[C@H](C)O2)[C@H](C)[C@@H](O[C@@H]2O[C@H](C)C[C@H](N(C)C)[C@H]2O)[C@@]2(C)CC(C)=C(O2)[C@@H]1C` [Compound 3a], the MIC in assay [1] amounted to 64 mg/L (≈ 91.4 µM); in [2] it was 64 mg/L (≈ 91.4 µM); in [3], 64 mg/L (≈ 91.4 µM); in assay [4], 64 mg/L (≈ 91.4 µM); in [5], 64 mg/L (≈ 91.4 µM); in [6], 128 mg/L (≈ 183 µM). For the same compound, the MIC in assay [7] is above 128 mg/L; in assay [8] (setting [11]), 64 mg/L (≈ 91.4 µM); in assay [9], 64 mg/L (≈ 91.4 µM); in assay [10], 128 mg/L (≈ 183 µM).

With `CO[C@]1(C)C[C@H](O[C@H]2[C@H](C)[C@@H](O[C@@H]3O[C@H](C)C[C@H](N(C)C)[C@H]3O)[C@@]3(C)CC(C)=C(O3)[C@H](C)[C@H](C(C)=O)OC(=O)[C@@H]2C)O[C@@H](C)[C@@H]1O` [Compound 4], the MIC in assay [1] is above 128 mg/L; in [2] it was above 128 mg/L; in assay [3] it was 32 mg/L (≈ 48.8 µM); in assay [4] it was 64 mg/L (≈ 97.6 µM); in assay [5], 16 mg/L (≈ 24.4 µM); in assay [6], 16 mg/L (≈ 24.4 µM). The MIC in assay [7] is above 128 mg/L; in assay [8] (setting [11]), above 128 mg/L; in assay [9] it was 128 mg/L (≈ 195 µM); in assay [10], 16 mg/L (≈ 24.4 µM).

Take `CC[C@@H](O)[C@@](C)(O)[C@@H]1OC(=O)[C@H](C)[C@@H](O[C@H]2C[C@@](C)(OC)[C@@H](O)[C@H](C)O2)[C@H](C)[C@@H](O[C@@H]2O[C@H](C)C[C@H](N(C)C)[C@H]2O)[C@@]2(C)CC(C)(O)C(O)(O2)[C@@H]1C` (some centres unmarked) [Compound 6]: the MIC in assay [1] is above 128 mg/L; in assay [2], 64 mg/L (≈ 85.3 µM); in [3], 8 mg/L (≈ 10.7 µM); in assay [4] it was 16 mg/L (≈ 21.3 µM); in assay [5], 16 mg/L (≈ 21.3 µM); in [6], 8 mg/L (≈ 10.7 µM). Besides, the MIC is above 128 mg/L in assay [7]; 128 mg/L (≈ 171 µM) in assay [8] (Staphylococcus aureus, X1.1, read-out: minimal inhibitory concentration (MIC)); 64 mg/L (≈ 85.3 µM) in assay [9]; 8 mg/L (≈ 10.7 µM) in [10].

For `CO[C@]1(C)C[C@H](O[C@H]2[C@H](C)[C@@H](O[C@@H]3O[C@H](C)C[C@H](N(C)C)[C@H]3O)[C@@](C)(CC(C)=O)OC(=O)[C@H](C)[C@H](C(C)=O)OC(=O)[C@@H]2C)O[C@@H](C)[C@@H]1O` [Compound 8], the MIC was above 128 mg/L in assay [1]; above 128 mg/L in assay [2]; 32 mg/L (≈ 46.5 µM) in assay [3]; 128 mg/L (≈ 186 µM) in [4]; 64 mg/L (≈ 93 µM) in assay [5]; 64 mg/L (≈ 93 µM) in [6]. The MIC in assay [7] was above 128 mg/L; in [8] (setting [11]), above 128 mg/L; in [9], above 128 mg/L; in [10] it was 64 mg/L (≈ 93 µM).
